Results reported in PubChem BioAssay (NCI).
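Test compounds were applied to cells in 96-well plates for 48 hours at 5 doses. The concentration for 50% growth inhibition is given as GI50. The concentration for full growth arrest is given as TGI.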

Tests used:
Assay in all cases: growth of human tumour cells (NCI), 48 h
[1] = system: 786-0 renal
[2] = system: ACHN renal
[3] = system: BT-549 breast
[4] = system: CAKI-1 renal
[5] = system: DU-145 prostate
[6] = system: SK-OV-3 ovarian
[7] = system: SN12C renal
[8] = system: T-47D breast

SMILES	GI50 [1] [µM]	TGI [1] [µM]	GI50 [2] [µM]	TGI [2] [µM]	GI50 [3] [µM]	TGI [3] [µM]	GI50 [4] [µM]	TGI [4] [µM]	GI50 [5] [µM]	TGI [5] [µM]	GI50 [6] [µM]	TGI [6] [µM]	GI50 [7] [µM]	TGI [7] [µM]	GI50 [8] [µM]	TGI [8] [µM]
O=C(NC1CCN(Cc2ccccc2)CC1)c1cc(C(=O)NC2CCN(Cc3ccccc3)CC2)cc(C(=O)NC2CCN(Cc3ccccc3)CC2)c1	14.8	> 50	> 50	> 50	2.01	11.4	> 50	> 50	18.2	> 50	8.27	16.1	15.6	> 50	4.56	14.3
O=c1ccccc(-c2ccc(-c3ccco3)cc2)c1O	0.834	14.7	0.437	12	1.65	28			0.967	> 100	1.22	24	1.24	16.6	1.56	80.3
CC(C)(C)N1CC(OC(N)=O)C1	> 100	> 100	> 100	> 100	> 100	> 100	> 100	> 100	> 100	> 100	> 100	> 100	> 100	> 100	> 100	> 100
N#Cc1nn(C2OC(COC(=O)c3ccccc3)C(OC(=O)c3ccccc3)C2OC(=O)c2ccccc2)c2nc[nH]c(=O)c12 (configuration not stated)		> 100		> 100				> 100		> 100		> 100		> 100		> 100
Oc1cccc(Cn2c(-c3cccc(O)c3O)nc3ccccc32)c1O	1.86	14.1	2.57	11.8	18.9	81.1	2.26	5.85	4.89	20.5	13.9	75.4	3.4	16.3		
O=C1/C(=C/c2ccccc2)CN(CCC(=O)N2C/C(=C\c3ccccc3)C(=O)/C(=C/c3ccccc3)C2)C/C1=C\c1ccccc1	9.8	32.9	8.92	30.3	9.91	36.4	8.5	41.1	21.1	73.9	24.9	> 75.2	17.3	> 95.9	13.5	75.3
O=C(O[C@H]1CN[C@H](C#Cc2cc3ncnc(Nc4ccc(OCc5cccc(F)c5)c(Cl)c4)c3s2)C1)N1CCOCC1	4.68	9.66	4.27	> 25	4.28	8.69	3.17	> 25	5.96	> 25	0.0356	> 25	5.66	> 25	1.55	> 25
CC1(C)CCC2(C(=O)O)CC[C@]3(C)C(=CCC4C5(C)CC[C@H](OC6OC(C(=O)O)C(O)C(OC7OC(CO)C(O)C(O)C7O)C6OC6OC(CO)C(O)C(O)C6O)C(C)(C)C5CCC43C)C2C1 (some centres not stated)	> 100	> 100			> 100	> 100	> 100	> 100			> 100	> 100	84	> 100	> 100	> 100
COc1ccccc1N1CCN(C(=O)c2ccc(NS(=O)(=O)c3cccc4cccnc34)cc2)CC1	> 61.7	> 100	> 71	> 100	> 76.5	> 100	> 100	> 100	> 100	> 100	> 45.5	> 83.3	> 100	> 100	> 22.1	> 100
COc1ccc(-c2nc(N)c3ncn(C4OC(CO)C(O)C4O)c3n2)cc1 (configuration not stated)		> 100		> 100		> 100		> 100		> 100		> 100		> 100		> 100
COC1OC(CBr)C(OC(c2ccccc2)(c2ccccc2)c2ccccc2)C(OC(c2ccccc2)(c2ccccc2)c2ccccc2)C1OC(c1ccccc1)(c1ccccc1)c1ccccc1 (configuration not stated)		> 100		> 100		> 100		> 100		> 100		60.7		> 100		> 100
C[C@@H](Oc1cc(NS(=O)(=O)N2CCC2)nc(SCc2cccc(F)c2F)n1)[C@@H](O)CO	> 100	> 100	> 100	> 100	> 100	> 100	> 100	> 100	> 100	> 100	> 100	> 100	> 100	> 100	> 100	> 100
O=C1/C(=C/c2ccccc2Br)COc2ccc(O)c(O)c21	1.55	4.16	1.32	3.09	2.17	5.95	1.31	2.74	1.49	3.23	3.95	15	0.937	3.62	2.25	11.4
Cc1ccc(C(=O)CCC2C(=O)CC(C)(C)CC2=O)cc1		> 100		> 100		> 100		32		> 100		> 100		> 100		
N#C/C(=C/C=C/c1ccccc1)S(=O)c1ccccc1 (configuration not stated)	0.322	1.36	0.2	0.462	0.712	2.35	0.418	1.55	0.316	1.2	2.5	10.9	0.373	1.63	0.298	5.62
Cc1ccc2c(N/N=C\c3ccco3)cc(C)nc2n1	2.25	6.11	3.37	12.4	4.37	14.9	2.93	12.8	6.79	20.1	8.74	22.7	4.68	16.5		
